Experimental data as given in ChEMBL document CHEMBL1201862, “PubChem BioAssay data set” (2004).
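Five concentrations, 48 hours, 96-well plates. Abbreviation: GI50, concentration required for 50% inhibition of growth.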 Active and inactive are the calls of the source. Cut-off read from the data, not from the text of the source: active = GI50 up to about 1.1 µM and inactive = higher.

What was measured:
Assay in all cases: NCI anticancer screen, dose series, 48 h
[1] = tested on: 786-0
[2] = tested on: A498
[3] = tested on: A549
[4] = tested on: ACHN
[5] = tested on: BT-549
[6] = tested on: CAKI-1
[7] = tested on: CCRF-CEM
[8] = tested on: COLO 205
[9] = tested on: DU-145
[10] = tested on: EKVX
[11] = tested on: HCC 2998
[12] = tested on: HCT-116
[13] = tested on: HCT-15
[14] = tested on: HL-60
[15] = tested on: HOP-62
[16] = tested on: HOP-92
[17] = tested on: HT-29
[18] = tested on: Hs-578T
[19] = tested on: IGROV-1
[20] = tested on: K562
[21] = tested on: KM12
[22] = tested on: LOX IMVI
[23] = tested on: M14
[24] = tested on: MDA-MB-231
[25] = tested on: MDA-MB-435
[26] = tested on: MOLT-4
[27] = tested on: Malme-3M
[28] = tested on: NCI-H226
[29] = tested on: NCI-H23
[30] = tested on: NCI-H460
[31] = tested on: NCI-H522
[32] = tested on: NCI/ADR-RES
[33] = tested on: OVCAR-3
[34] = tested on: OVCAR-4
[35] = tested on: OVCAR-5
[36] = tested on: OVCAR-8
[37] = tested on: PC-3
[38] = tested on: RPMI-8226
[39] = tested on: RXF 393
[40] = tested on: SF-268
[41] = tested on: SF-295
[42] = tested on: SK-MEL-28
[43] = tested on: SK-MEL-2
[44] = tested on: SK-MEL-5
[45] = tested on: SK-OV-3
[46] = tested on: SNB-19
[47] = tested on: SNB-75
[48] = tested on: SR
[49] = tested on: SW-620
[50] = tested on: T47D
[51] = tested on: TK-10
[52] = tested on: U-251
[53] = tested on: UACC-257
[54] = tested on: UACC-62
[55] = tested on: UO-31
[56] = tested on: MCF7
[57] = tested on: MDA-N
[58] = tested on: SF-539
[59] = tested on: SN12C

Measured: GI50

CCOC(=O)c1nc2cc(C(F)(F)F)ccc2nc1Nc1ccc(C(=O)OC)s1
34.2 µM: [13]
inactive: [1] 29.6 µM | [2] 40.9 µM | [3] 48.6 µM | [4] 37.8 µM | [5] 25.7 µM | [6] 31.3 µM | [7] 30.6 µM | [8] 20.7 µM | [9] 54.6 µM | [10] 45.9 µM | [11] 36.1 µM | [12] 35.3 µM | [14] 38 µM | [15] 33.6 µM | [16] 17.9 µM | [17] 37.1 µM | [18] 29.8 µM | [19] 40.9 µM | [20] 31.6 µM | [21] 38.7 µM | [22] 30.5 µM | [23] 37.6 µM | [24] 23.6 µM | [25] 47.2 µM | [26] 27.1 µM | [27] 38.5 µM | [28] 27 µM | [29] 30 µM | [30] 33 µM | [31] 19.7 µM | [32] 45.5 µM | [33] 19.3 µM | [34] 31 µM | [35] > 100 µM | [36] 41.2 µM | [37] 30.7 µM | [38] 30.7 µM | [39] 16.8 µM | [40] 44.9 µM | [41] 43 µM | [42] 45 µM | [43] 19.4 µM | [44] 40.5 µM | [45] 47.3 µM | [46] 33.1 µM | [47] 56.1 µM | [48] 15.5 µM | [49] 49.1 µM | [50] 25.7 µM | [51] 42.8 µM | [52] 29.6 µM | [53] 36.5 µM | [54] 23.2 µM | [55] 33.3 µM

CC(C)[C@H](C)/C=C/[C@@H](C)C1CC[C@H]2[C@@]34C=C[C@]5(C[C@@H](O)CC[C@]5(C)[C@H]3CC[C@]12C)OO4 (stereo partly specified)
inactive: [1] 20.4 µM | [2] 25.8 µM | [3] 42.7 µM | [4] 37.4 µM | [5] 26.9 µM | [6] 22.5 µM | [8] 31 µM | [9] 23.1 µM | [10] 39.3 µM | [11] 21.9 µM | [12] 19.3 µM | [14] 17.2 µM | [15] > 100 µM | [16] 32.4 µM | [17] 23.3 µM | [19] 29 µM | [21] 31 µM | [22] 17.7 µM | [23] 40.7 µM | [56] 31.9 µM | [24] 25.5 µM | [25] 29.6 µM | [57] 35.1 µM | [26] 28.6 µM | [28] 22.2 µM | [29] 27.3 µM | [30] 31.8 µM | [32] 19.1 µM | [33] 89.5 µM | [34] 40.1 µM | [35] > 100 µM | [36] 20.8 µM | [39] 44.5 µM | [40] 29.7 µM | [41] 32.7 µM | [58] 29.6 µM | [42] 34 µM | [43] 26.7 µM | [44] 23.6 µM | [45] 54.8 µM | [59] 28.6 µM | [46] 27.9 µM | [47] 30.3 µM | [49] 27.1 µM | [50] 20.8 µM | [51] 42 µM | [52] 24.3 µM | [53] > 100 µM | [54] 17.1 µM | [55] 37.3 µM
32.8 µM: [13]
